Key:
PC-3 = test: CCK-8 cytotoxicity assay, PC-3; assay type: cell-based, human; conditions: for IC50: Homo sapiens, PC-3 cells, CCK-8, 24 h, mean ± SD of three experiments
Description: (§1) Cell proliferation was measured using the CCK-8 assay kit ([Kaspers et al., 1997]; [Kaspers et al., 1998]; [Ding et al., 2010]). Cells were seeded into 96-well plates (>5*10^4) with approximately 100 ul of cell suspension per well and incubated in 37°C incubator for 4 h. Various concentrations of the compounds were then added and incubated for a further 24 h in a 37°C incubator. Finally, 10 ul CCK8 was added and incubated for 0.5–4 h, absorbance at 450 nm was determined. ([Guo et al., 2021]; [He et al., 2022a]; [Hu et al., 2022]).
(§2) The in vitro cytotoxic activity results of the synthesized derivatives 3–17 against human prostate cancer lines (PC-3, LNCaP, and DU145) and the human prostate epithelial cell line (WPMY-1) were evaluated, as shown in Table 1.

LNCaP = test: CCK-8 cytotoxicity assay, LNCaP; assay type: cell-based, human; conditions: for IC50: Homo sapiens, LNCaP cells, CCK-8, 24 h, mean ± SD of three experiments
Description: as §1, §2

DU145 = test: CCK-8 cytotoxicity assay, DU145; assay type: cell-based, human; conditions: for IC50: Homo sapiens, DU-145, DU145 cells, CCK-8, 24 h, mean ± SD of three experiments
Description: as §1, §2

WPMY-1 = test: CCK-8 cytotoxicity assay, WPMY-1 normal prostate epithelial cells; assay type: cell-based; conditions: WPMY-1 normal human prostate epithelial cells, CCK-8, 24 h; mean ± SD of three experiments
Description: as §1, §2

AR = molecular target: T1, AR (Homo sapiens, UniProt P10275); test: AR reporter gene (luciferase) assay; assay type: cell-based; conditions: read-out: AR antagonistic activity % (10 μM)
T1 sequence (P10275 1-920): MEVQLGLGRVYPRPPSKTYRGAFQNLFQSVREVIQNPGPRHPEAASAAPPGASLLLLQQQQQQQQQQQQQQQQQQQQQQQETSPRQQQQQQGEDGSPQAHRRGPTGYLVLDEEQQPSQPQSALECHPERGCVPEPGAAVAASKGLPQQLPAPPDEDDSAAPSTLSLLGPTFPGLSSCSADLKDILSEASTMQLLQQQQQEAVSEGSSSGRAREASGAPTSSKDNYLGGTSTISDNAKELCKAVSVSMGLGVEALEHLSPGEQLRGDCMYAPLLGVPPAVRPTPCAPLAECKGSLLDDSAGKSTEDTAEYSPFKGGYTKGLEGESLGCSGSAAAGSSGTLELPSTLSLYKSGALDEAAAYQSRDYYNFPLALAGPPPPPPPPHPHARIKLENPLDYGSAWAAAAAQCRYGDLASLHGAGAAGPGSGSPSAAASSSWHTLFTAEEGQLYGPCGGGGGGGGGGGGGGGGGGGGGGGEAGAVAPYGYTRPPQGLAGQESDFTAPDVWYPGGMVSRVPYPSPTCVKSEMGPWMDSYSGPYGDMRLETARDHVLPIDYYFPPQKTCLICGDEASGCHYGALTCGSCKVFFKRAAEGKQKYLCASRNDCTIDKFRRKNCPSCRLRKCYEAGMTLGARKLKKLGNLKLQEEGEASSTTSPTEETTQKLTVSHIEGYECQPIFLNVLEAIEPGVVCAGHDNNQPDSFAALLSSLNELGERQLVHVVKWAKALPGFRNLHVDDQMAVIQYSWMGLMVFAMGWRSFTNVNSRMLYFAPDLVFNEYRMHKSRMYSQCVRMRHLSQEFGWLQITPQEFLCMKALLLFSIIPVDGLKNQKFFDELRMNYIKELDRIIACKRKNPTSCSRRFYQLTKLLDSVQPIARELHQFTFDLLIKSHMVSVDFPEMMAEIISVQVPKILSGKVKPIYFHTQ
Description: Firefly and Renilla luciferase activities, were determined using the Dual-Glo™luciferase assay kit. RLUs were determined using the GloMax®96-Microplate Luminometer.

Row | Compound | IC50 (PC-3) [µM] | IC50 (LNCaP) [µM] | IC50 (DU145) [µM] | IC50 (WPMY-1) [µM] | inhibition at 10 µM (AR) [%] | melting point [°C] | cytotoxic activity against PC-3 cells (in words) (PC-3) | cytotoxic activity against LNCaP cells (in words) (LNCaP) | cytotoxic activity against DU145 cells (in words) (DU145)
1 | OCCc1ccc(CN2CCN(C(c3ccccc3)c3ccccc3)CC2)cc1 [Compound 3, 2-(4-((4-benzhydrylpiperazin-1-yl)methyl)phenyl)ethan-1-ol] | 8.13 ± 0.12 | 6.14 ± 0.58 | 11.1 ± 0.76 | > 50 | 40.17 ± 0.24 | 122 to 123 | – | – | –
2 | CC(C)(C)NC(=O)[C@H]1CC[C@H]2[C@@H]3CC[C@H]4NC(=O)C=C[C@]4(C)[C@H]3CC[C@]12C [Finasteride, reference compound] | 17.8 | 13.5 | 14.6 | – | – | – | – | – | –
3 | Cc1ccc(C(c2ccccc2)N2CCN(Cc3ccc(CCO)cc3)CC2)cc1 (stereo not drawn) [Compound 4, 2-(4-((4-(phenyl(p-tolyl)methyl)piperazin-1-yl)methyl)phenyl)ethan-1-ol] | 2.56 ± 0.32 | 4.67 ± 1.02 | 6.14 ± 0.24 | > 50 | 32.5 ± 0.65 | 125 to 126 | strong cytotoxic activities | strong cytotoxic activities | strong cytotoxic activities
4 | COc1ccc(CN2CCN(Cc3ccc(CCO)cc3)CC2)cc1 [Compound 14, 2-(4-((4-(4-methoxybenzyl)piperazin-1-yl)methyl)phenyl)ethan-1-ol] | 11.1 ± 0.67 | 16.2 ± 0.53 | 24.1 ± 0.47 | > 50 | 58.88 ± 0.23 | 117 to 118 | – | – | –
5 | CC(c1ccccc1)N1CCN(Cc2ccc(CCO)cc2)CC1 (stereo not drawn) [Compound 12, 2-(4-((4-(1-phenylethyl)piperazin-1-yl)methyl)phenyl)ethan-1-ol] | 13.7 ± 1.12 | 7.76 ± 0.19 | 16.3 ± 0.63 | > 50 | 68.62 ± 0.38 | 114 to 115 | – | – | –
6 | OCCc1ccc(CN2CCN(C(c3ccccc3)c3ccc(F)cc3)CC2)cc1 (stereo not drawn) [Compound 7, 2-(4-((4-((4-fluorophenyl)(phenyl)methyl)piperazin-1-yl)methyl)phenyl)ethan-1-ol] | 1.87 ± 0.22 | 5.17 ± 0.63 | 2.17 ± 1.12 | 48.26 ± 0.41 | 38.7 ± 0.83 | 116 to 117 | strong cytotoxic activities | strong cytotoxic activities | strong cytotoxic activities
7 | OCCc1ccc(CN2CCN(C(c3ccc(F)cc3)c3ccc(F)cc3)CC2)cc1 [Compound 8, 2-(4-((4-(bis(4-fluorophenyl)methyl)piperazin-1-yl)methyl)phenyl)ethanol] | 10.12 ± 0.08 | 4.92 ± 0.29 | 12.3 ± 0.16 | 35.53 ± 0.13 | 25.2 ± 0.71 | 133 to 134 | – | – | –
8 | Cc1ccc(C(c2ccc(C)cc2)N2CCN(Cc3ccc(CCO)cc3)CC2)cc1 [Compound 5, 2-(4-((4-(di-p-tolylmethyl)piperazin-1-yl)methyl)phenyl)ethan-1-ol] | 12.1 ± 0.29 | 3.73 ± 0.58 | 9.82 ± 0.24 | 37.51 ± 0.37 | 22.7 ± 0.72 | 128 to 129 | moderate activity | – | moderate activity
9 | Cc1ccc(CN2CCN(Cc3ccc(CCO)cc3)CC2)cc1 [Compound 13, 2-(4-((4-(4-methylbenzyl)piperazin-1-yl)methyl)phenyl)ethan-1-ol] | 15.4 ± 0.42 | 22.1 ± 0.76 | 17.2 ± 1.02 | 47.14 ± 0.42 | 64.18 ± 0.45 | 112 to 113 | – | – | –
10 | OCCc1ccc(CN2CCN(C(c3ccccc3)c3ccc(Cl)cc3)CC2)cc1 (stereo not drawn) [Compound 9, 2-(4-((4-((4-chlorophenyl)(phenyl)methyl)piperazin-1-yl)methyl)phenyl)ethanol] | 1.53 ± 0.16 | 4.13 ± 0.06 | 7.63 ± 0.12 | > 50 | 28.42 ± 0.25 | 130 to 131 | strong cytotoxic activities | strong cytotoxic activities | strong cytotoxic activities
11 | OCCc1ccc(CN2CCN(Cc3ccc(Cl)cc3)CC2)cc1 [Compound 16, 2-(4-((4-(4-chlorobenzyl)piperazin-1-yl)methyl)phenyl)ethan-1-ol] | 14.4 ± 0.35 | 16.4 ± 0.19 | 31.5 ± 1.21 | > 50 | 60.25 ± 0.35 | 109 to 110 | – | – | –
12 | COc1ccccc1N1CCN(CC(O)COc2cccc3ccccc23)CC1 (stereo not drawn) [Naftopidil, reference compound] | 42.1 ± 0.79 | 22.4 ± 0.61 | 34.58 ± 0.31 | > 50 | – | – | – | – | –
13 | OCCc1ccc(CN2CCN(C(c3ccc(Cl)cc3)c3ccc(Cl)cc3)CC2)cc1 [Compound 10, 2-(4-((4-(bis(4-chlorophenyl)methyl)piperazin-1-yl)methyl)phenyl)ethan-1-ol] | 15.24 ± 0.14 | 7.14 ± 0.29 | 10.8 ± 1.14 | > 50 | 20.47 ± 0.18 | 127 to 128 | – | – | –
14 | OCCc1ccc(CN2CCN(C3c4ccccc4Sc4ccccc43)CC2)cc1 [Compound 17, 2-(4-((4-(9H-thioxanthen-9-yl)piperazin-1-yl)methyl)phenyl)ethan-1-ol] | 6.42 ± 0.52 | 5.61 ± 0.86 | 8.35 ± 0.28 | > 50 | 36.5 ± 0.79 | 121 to 122 | – | – | –
15 | OCCc1ccc(CN2CCN(Cc3ccc(F)cc3)CC2)cc1 [Compound 15, 2-(4-((4-(4-fluorobenzyl)piperazin-1-yl)methyl)phenyl)ethan-1-ol] | 10.5 ± 1.14 | 18.45 ± 0.16 | 16.2 ± 0.62 | > 50 | 64.35 ± 0.17 | 114 to 115 | – | – | –
